System: plasma cells in MM spheroids
Test: Viability of plasma cells in 3D MM spheroids treated with melphalan, flow cytometry (CD38/CD138/DAPI)
Type: cell-based, human
Details: for viability at 10 µM: Homo sapiens, 10 μM melphalan
Experimental: Following a total bone marrow sample at diagnosis in patients with multiple myeloma (MM), MM plasma cells are separated and then counted in a Malassez cell. The cells were then used freshly for cocultures or were frozen in CRYOSTOR. The MM total marrow cells coming from another patient were seeded according to the initial number thereof and the cells were incubated at a temperature of 37° C. and under an atmosphere with 5% carbon dioxide for about 2 weeks. Once confluence was reached, mesenchymal stem/stromal cells (MSCs), endothelial cells and endothelial progenitors were treated with trypsin and counted.
The MSC cells, the endothelial cells and the endothelial progenitors treated with trypsin and the fresh or thawed plasmocytes in a ratio of 1 MSC per 2 plasmocytes were suspended on ULA (Ultra-Low adherence) plates in 50 μL of RPMI medium (10% FCS, 1% PS). The cells were then incubated at a temperature of 37° C. and an atmosphere with 5% carbon dioxide with stirring. 150 μL of RPMI medium were added after incubation for 24 h and the medium was renewed 2 times per week, removing 100 μL of supernatant.
A treatment with […] melphalan was added to the spheroid culture medium 48 h after the formation thereof and the culture was continued for 14 days. The selection method was supplemented by a control situation, without the presence of a drug candidate. Part of the cultures was stopped after 7 (D+7) and 11 (D+11) days to analyze the viability of the plasma cells, whereas the rest of the cultures was stopped after 14 days of culture (D+14). Spheroid cells were mechanically dissociated at 1400 rpm with AccuMax® and then transferred into a tube suitable for flow cytometry and washed with PBS and labeled with the CD38 FITC and CD138 AF700 specific antibodies in MACS buffer. The cells were then incubated at 4° C. for 30 minutes, washed and resuspended in a MACS buffer medium and filtered at 70 μm, and finally labeled with the viability marker DAPI before passing through flow cytometry.

N[C@@H](Cc1ccc(N(CCCl)CCCl)cc1)C(=O)O [melphalan]
viability at 10 µM (D+7): 5%
viability at 10 µM (D+11): < 5%
viability at 10 µM (D+14): < 10%
response to treatment of plasma cells within spheroids (melphalan 10 μM): strong response

Reference: patent US20260125654A1, “Method for Producing a Three-Dimensional Human Multiple-Myeloma Model” (Etablissement Français du Sang, priority 2022, published 2026)
